Patent US6664250B2, “Lactam derivatives as antiarrhythmic agents” (Bristol-Myers Squibb Co., priority 1998, dated 2003)
Counter-ions that a name gives are not always drawn.

Compound | melting point
COc1ccc2c(c1)C(=O)NC(CC(C)(C)C)C2 (stereo not shown) [Example 38] | 113 to 114 °C
CCOc1ccc2c(c1)NC(=O)C(CC(C)(C)C)CC2 (stereo not shown) [Example 28] | 136 to 138 °C
CCCOc1ccc2c(c1)C(=O)NC(CC(C)(C)C)CC2 (stereo not shown) [Example 22] | 132 to 133 °C
CCOc1ccc2c(c1)C(=O)NC(CC(C)(C)C)C2 (stereo not shown) [Example 30] | 129 to 130 °C
CC(C)COc1ccc2c(c1)C(=O)NC(CC(C)(C)C)CC2 (stereo not shown) [Example 27] | 148 to 149 °C
CCCOc1ccc2c(c1)NC(=O)C(CC(C)(C)C)C2 (stereo not shown) [Example 36] | 109 to 110 °C
CC(C)Oc1ccc2c(c1)C(=O)NC(CC(C)(C)C)C2 (stereo not shown) [Example 37] | 135 to 136 °C
CCOc1ccc2c(c1)C(=O)NC(CC(C)(C)C)CC2 (stereo not shown) [Example 21] | 159 to 160 °C
CC(C)COc1ccc2c(c1)NC(=O)C(CC(C)(C)C)CC2 (stereo not shown) [Example 33] | 139 to 140 °C
CC(C)(C)CC1CCc2ccc(OCc3ccccc3)cc2C(=O)N1 (stereo not shown) [Example 23] | 142 to 143 °C
CCCOc1ccc2c(c1)C(=O)NC(CC(C)(C)C)C2 (stereo not shown) [Example 31] | 88 to 90 °C
COc1ccc2c(c1)CCN(CCN1CCC(c3ccccc3)CC1)C2=O (as salt: hydrochloride) [Example 1, 3,4-Dihydro-6-methoxy-2-[2-(4-phenyl-1-piperidinyl)ethyl]-1(2H)-isoquinolinone, Monohydrochloride] | 232 to 235 °C
COc1ccc2c(c1)CC(C)(CN1CCC(c3ccccc3)CC1)NC2=O (stereo not shown) [Example 6] | 93 to 95 °C
CC(C)Oc1ccc2c(c1)C(=O)NC(CC(C)(C)C)CC2 (stereo not shown) [Example 29] | 113 to 114 °C
CC(C)(C)CC1CCc2ccc(OCc3ccccc3)cc2NC1=O (stereo not shown) [Example 26] | 150 to 151 °C
CC(C)COc1ccc2c(c1)C(=O)NC(CC(C)(C)C)C2 (stereo not shown) [Example 32] | 142 to 143 °C
COc1ccc2c(c1)NC(=O)C(CC(C)(C)C)C2 (stereo not shown) [Example 37] | 118 to 119 °C
CC(C)Oc1ccc2c(c1)NC(=O)C(CC(C)(C)C)CC2 (stereo not shown) [Example 34] | 132 to 134 °C
CCCOc1ccc2c(c1)NC(=O)C(CC(C)(C)C)CC2 (stereo not shown) [Example 24] | 117 to 119 °C
OCC1c2ccc(OCc3ccccc3)cc2CCN1CCN1CCC(c2ccccc2)CC1 (stereo not shown) (as salt: hydrochloride) | 205 to 210 °C (dec.)
COc1ccc2c(c1)CCC(C)(CN1CCC(c3ccccc3)CC1)NC2=O (stereo not shown) [Example 5, 2,3,4,5-Tetrahydro-7-methoxy-3-methyl-3-[(4-phenyl-1-piperidinyl)methyl]-1H-2-benzazepin-1-one] | 127 to 128 °C
CC(C)(C)CC1Cc2ccc(OCc3ccccc3)cc2C(=O)N1 (stereo not shown) [Example 25] | 139 to 140 °C
